Measurements as given in patent US20220041647A1, “ESTRA-1,3,5(10)-TRIENE COMPOUNDS CONDENSED IN POSITION 16(17) WITH A PYRAZOLE RING AS INHIBITORS OF 17-HSD1” (FORENDO PHARMA LTD, priority 2018, published 2022).

Tests used:
Type in all cases: biochemical
[1] = molecular target: T1, recombinant human 17β-HSD2 (Homo sapiens, UniProt P37059); experiment: Inhibition of recombinant human 17β-HSD2 (estradiol to estrone conversion, HPLC/radioactivity); settings: compound 1 μM; 50 nM estradiol, 1 mM NADH, 30 min RT
T1 construct: made in house; host or cells: Sd9 (Sf9) insect cells, baculovirus (Bac to Bac Expression System)
T1 sequence (P37059 1-387): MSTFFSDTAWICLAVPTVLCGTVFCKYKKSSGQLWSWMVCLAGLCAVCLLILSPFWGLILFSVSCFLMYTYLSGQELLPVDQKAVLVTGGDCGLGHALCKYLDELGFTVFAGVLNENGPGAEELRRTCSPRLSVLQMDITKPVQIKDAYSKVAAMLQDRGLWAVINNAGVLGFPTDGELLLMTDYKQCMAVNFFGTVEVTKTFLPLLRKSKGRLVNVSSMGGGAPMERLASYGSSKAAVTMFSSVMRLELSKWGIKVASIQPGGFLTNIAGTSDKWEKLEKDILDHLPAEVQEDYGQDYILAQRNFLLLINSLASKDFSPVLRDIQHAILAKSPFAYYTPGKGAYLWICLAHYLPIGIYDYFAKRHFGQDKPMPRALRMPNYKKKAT
Outline: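 Membrane extract of Sf9 cells expressing recombinant human 17β-HSD2 (4 μg/ml), in 20 mM KH2PO4 pH 8.5 with 50 nM ^3H-spiked estradiol and 1 mM NADH, 30 min at RT, 1% DMSO. Compound at 1 μM or 0.1 μM; estrone formation by HPLC radioactivity, % inhibition relative to uninhibited conversion.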

[2] = test system: HSD1 enzyme that is expressed in rabbit placenta tissue; experiment: Inhibition of E1 to E2 conversion in rabbit placenta tissue homogenate; settings: compound 100 nM, 30 nM estrone, 1 mM β-NADPH, 30 min
Outline: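 Rabbit placenta homogenate (20 mM KH2PO4, 1 mM EDTA, pH 7.4) incubated 30 min with 1 mM β-NADPH, 30 nM estrone plus 5 nM [3H]-estrone tracer, and inhibitor at 1 μM or 0.1 μM (1% DMSO). Stopped with TCA; estrone and estradiol resolved by HPLC with scintillation counting; % inhibition = 100 − % conversion relative to uninhibited control.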

[3] = molecular target: T2, recombinant human 17β-HSD1 (Homo sapiens, UniProt P14061); experiment: Inhibition of recombinant human 17β-HSD1 (estrone to estradiol conversion, HPLC/radioactivity); settings: compound 100 nM; 30 nM estrone, 1 mM NADPH, 30 min RT
T2 construct: made in house; host or cells: Sd9 (Sf9) insect cells, baculovirus (Bac to Bac Expression System)
T2 sequence (P14061 1-328): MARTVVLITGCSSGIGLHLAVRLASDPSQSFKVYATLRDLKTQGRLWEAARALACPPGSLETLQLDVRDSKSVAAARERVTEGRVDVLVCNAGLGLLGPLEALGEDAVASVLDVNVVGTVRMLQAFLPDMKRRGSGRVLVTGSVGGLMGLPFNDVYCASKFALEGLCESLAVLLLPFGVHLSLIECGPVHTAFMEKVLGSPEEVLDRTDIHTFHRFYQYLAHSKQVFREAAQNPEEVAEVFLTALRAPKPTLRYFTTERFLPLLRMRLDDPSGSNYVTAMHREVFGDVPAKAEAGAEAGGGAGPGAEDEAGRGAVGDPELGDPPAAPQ
Outline: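 Microsomal human 17β-HSD1 from Sf9 baculovirus (1 μg/ml) was incubated 30 min at RT in 20 mM KH2PO4 pH 7.4 with 30 nM ^3H-estrone, 1 mM NADPH and inhibitor at 1 μM or 0.1 μM (1% DMSO). Estrone and estradiol were separated by HPLC with radioactivity detection. % inhibition = 100 − % conversion relative to uninhibited control.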

Row | SMILES | inhibition at 1 µM [1] | Rabbit placenta inhibition % @100 nM [2] | inhibition at 0.1 µM [3]
1 | Cn1ccc(NC(=O)CC[C@@H]2c3c[nH]nc3[C@@]3(C)CCC4c5ccccc5CCC4C23)n1 (stereo partly drawn) [Compound 186, 3-((8aS,12S)-8a-methyl-1,2,6b,7,8,8a,10,12,12a,12b-decahydronaphtho[2′,1′:4,5]indeno[1,2-c]pyrazol-12-yl)-N-(1-methyl-1H-pyrazol-3-yl)propanamide] | 1% | 11% | 81%
2 | C[C@]12CCC3c4ccccc4CCC3C1[C@H](CCC(=O)NC1CCC1)c1c[nH]nc12 (stereo partly drawn) [Compound 192, N-cyclobutyl-3-((8aS,12S)-8a-methyl-1,2,6b,7,8,8a,10,12,12a,12b-decahydronaphtho[2′,1′:4,5]indeno[1,2-c]pyrazol-12-yl)propanamide] | 2% | 14% | 86%
3 | Cc1ccc(NC(=O)CC[C@@H]2c3c[nH]nc3[C@@]3(C)CCC4c5ccccc5CCC4C23)nn1 (stereo partly drawn) [Compound 195, 3-((8aS,12S)-8a-methyl-1,2,6b,7,8,8a,10,12,12a,12b-decahydronaphtho[2′,1′:4,5]indeno[1,2-c]pyrazol-12-yl)-N-(6-methylpyridazin-3-yl)propanamide] | 10% | 61% | 70%
4 | CN1CCN(c2ccc(NC(=O)CC[C@@H]3c4c[nH]nc4[C@@]4(C)CCC5c6ccccc6CCC5C34)nc2)CC1 (stereo partly drawn) [Compound 198, 3-((8aS,12S)-8a-methyl-1,2,6b,7,8,8a,10,12,12a,12b-decahydronaphtho[2′,1′:4,5]indeno[1,2-c]pyrazol-12-yl)-N-(5-(4-methylpiperazin-1-yl)pyridin-2-yl)propanamide] | 18% | 77% | 88%
5 | C[C@]12CCC3c4cccc(F)c4CCC3C1[C@H](CCC(=O)Nc1cccc(F)n1)c1c[nH]nc12 (stereo partly drawn) [Compound 204, 3-((8aS,12S)-3-fluoro-8a-methyl-1,2,6b,7,8,8a,10,12,12a,12b-decahydronaphtho[2′,1′:4,5]indeno[1,2-c]pyrazol-12-yl)-N-(6-fluoropyridin-2-yl)propanamide] | 1% | 63% | 96%
6 | CC(C)(C)c1cc(NC(=O)CC[C@@H]2c3c[nH]nc3[C@@]3(C)CCC4c5cccc(F)c5CCC4C23)no1 (stereo partly drawn) [Compound 213, N-(5-(tert-butyl)isoxazol-3-yl)-3-((8aS,12S)-3-fluoro-8a-methyl-1,2,6b,7,8,8a,10,12,12a,12b-decahydronaphtho[2′,1′:4,5]indeno[1,2-c]pyrazol-12-yl)propanamide] | 10% | 25% | 93%
7 | C[C@]12CCC3c4cccc(F)c4CCC3C1[C@H](CCC(=O)NC1CCOC1)c1c[nH]nc12 (stereo partly drawn) [Compound 225, 3-((8aS,12S)-3-fluoro-8a-methyl-1,2,6b,7,8,8a,10,12,12a,12b-decahydronaphtho[2′,1′:4,5]indeno[1,2-c]pyrazol-12-yl)-N-(tetrahydrofuran-3-yl)propanamide] | -2% | 10% | 88%
8 | Cc1ccc(NC(=O)CC[C@@H]2c3c[nH]nc3[C@@]3(C)CCC4c5cccc(F)c5CCC4C23)nn1 (stereo partly drawn) [Compound 228, 3-((8aS,12S)-3-fluoro-8a-methyl-1,2,6b,7,8,8a,10,12,12a,12b-decahydronaphtho[2′,1′:4,5]indeno[1,2-c]pyrazol-12-yl)-N-(6-methylpyridazin-3-yl)propanamide] | 3% | 67% | 87%
9 | C[C@]12CCC3c4cccc(F)c4CCC3C1[C@H](CCC(=O)Nc1cccnn1)c1c[nH]nc12 (stereo partly drawn) [Compound 237, 3-((8aS,12S)-3-fluoro-8a-methyl-1,2,6b,7,8,8a,10,12,12a,12b-decahydronaphtho[2′,1′:4,5]indeno[1,2-c]pyrazol-12-yl)-N-(pyridazin-3-yl)propanamide] | 1% | 58% | 84%
